Laboratory results taken from patent publication US7351699B1, “Use of DHEA or precursors or metabolic derivatives thereof as a depigmenting agent” (L'Oreal, priority 1999, dated 2008).

What was measured:
[1] = test system: skin pigmentation (back of one hand); test: Biophysical evaluation by colorimetry (Minolta CR200, parameter b*); format: in vivo; settings: gelled oil-in-water emulsion with 1% by weight DHEA, applied morning and evening for four months to the back of one hand; 20 women 55 to 70 years old; decrease greater than on untreated hand; FIG. 2
Protocol: (§1) A gelled oil-in-water emulsion, containing 1% by weight of DHEA as sole active agent, was tested on a group of 20 women from 55 to 70 years old. The emulsion was applied morning and evening for four months to the back of one hand.
They were also evaluated by colorimetry, using a Minolta CR200 […] (biophysical evaluation). This apparatus describes the colors in a three-dimensional space, using the system of coordinates L, a* and b* recommended by the International Commission on Illumination, in which L* represents the luminance or clarity of the color ([…]), a* is the separation component between green (negative) and red (positive) and is correlated to the skin erythema, and b* varies from blue (negative) to yellow (positive) and represents the skin pigmentation. This parameter b* was used to evaluate the change in the marks in the course of the treatment. It is the result of the average of six individual measurements taken per zone and per measurement period.

[2] = test system: pigmentation marks on the skin (back of one hand); test: Clinical evaluation of pigmentation marks (visual overall score 0 to 7 by an expert); format: in vivo; settings: gelled oil-in-water emulsion with 1% by weight DHEA, applied morning and evening for four months to the back of one hand, 20 women 55 to 70 years old, score constant on untreated hand, FIG. 1
Protocol: as §1
The marks present on the skin were evaluated before and after treatment by visual observation made by an expert, giving the marks an overall score from 0 to 7 as a function of their number, their size and their intensity (clinical evaluation).

## C[C@]12CC[C@H](O)CC1=CC[C@@H]1[C@@H]2CC[C@]2(C)C(=O)CC[C@@H]12 [DHEA, dehydroepiandrosterone]
[1]
  component b of the color of the skin (skin pigmentation): decrease in the component b of the color of the skin
[2]
  overall clinical score of the pigmentation marks: improvement in the overall clinical score
